Test results reported in PubChem BioAssay (NCI).
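Assay format: 96-well plates, 48-hour exposure. At the GI50, growth is halved. TGI: concentration producing complete growth inhibition.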

Tests used:
Test in all cases: DTP human tumour cell line panel, 48 h
786-0 renal = test system: 786-0 renal
A498 renal = test system: A498 renal
A549 NSCLC = test system: A549 NSCLC
ACHN renal = test system: ACHN renal
BT-549 breast = test system: BT-549 breast
CAKI-1 renal = test system: CAKI-1 renal
CCRF-CEM leukemia = test system: CCRF-CEM leukemia
COLO 205 colon = test system: COLO 205 colon
DU-145 prostate = test system: DU-145 prostate
EKVX NSCLC = test system: EKVX NSCLC
HCC-2998 colon = test system: HCC-2998 colon
HCT-116 colon = test system: HCT-116 colon
HCT-15 colon = test system: HCT-15 colon
HL-60(TB) leukemia = test system: HL-60(TB) leukemia
HOP-62 NSCLC = test system: HOP-62 NSCLC
HOP-92 NSCLC = test system: HOP-92 NSCLC
HS 578T breast = test system: HS 578T breast
HT29 colon = test system: HT29 colon
IGROV1 ovarian = test system: IGROV1 ovarian
K-562 leukemia = test system: K-562 leukemia
KM12 colon = test system: KM12 colon
LOX IMVI melanoma = test system: LOX IMVI melanoma
M14 melanoma = test system: M14 melanoma
MALME-3M melanoma = test system: MALME-3M melanoma
MCF7 breast = test system: MCF7 breast
MDA-MB-231 breast = test system: MDA-MB-231 breast
MDA-MB-435 = test system: MDA-MB-435
MOLT-4 leukemia = test system: MOLT-4 leukemia
NCI-H226 lung = test system: NCI-H226 lung
NCI-H23 lung = test system: NCI-H23 lung
NCI-H460 lung = test system: NCI-H460 lung
NCI-H522 lung = test system: NCI-H522 lung
NCI/ADR-RES ovarian = test system: NCI/ADR-RES ovarian
OVCAR-3 ovarian = test system: OVCAR-3 ovarian
OVCAR-4 ovarian = test system: OVCAR-4 ovarian
OVCAR-5 ovarian = test system: OVCAR-5 ovarian
OVCAR-8 ovarian = test system: OVCAR-8 ovarian
PC-3 prostate = test system: PC-3 prostate
RPMI-8226 leukemia = test system: RPMI-8226 leukemia
RXF 393 renal = test system: RXF 393 renal
SF-268 CNS = test system: SF-268 CNS
SF-295 CNS = test system: SF-295 CNS
SF-539 CNS = test system: SF-539 CNS
SK-MEL-2 melanoma = test system: SK-MEL-2 melanoma
SK-MEL-28 melanoma = test system: SK-MEL-28 melanoma
SK-MEL-5 melanoma = test system: SK-MEL-5 melanoma
SK-OV-3 ovarian = test system: SK-OV-3 ovarian
SN12C renal = test system: SN12C renal
SNB-19 CNS = test system: SNB-19 CNS
SNB-75 CNS = test system: SNB-75 CNS
SR leukemia = test system: SR leukemia
SW-620 colon = test system: SW-620 colon
T-47D breast = test system: T-47D breast
TK-10 renal = test system: TK-10 renal
U251 CNS = test system: U251 CNS
UACC-257 melanoma = test system: UACC-257 melanoma
UACC-62 melanoma = test system: UACC-62 melanoma
UO-31 renal = test system: UO-31 renal

CCN(CC)CCOc1ccc(C(=C(C)c2ccc(OC)cc2)c2ccc(OCCN(CC)CC)cc2)cc1 gave a GI50 (786-0 renal) of 761 nM, a TGI (786-0 renal) of 1800 nM and a GI50 (A498 renal) of 997 nM. The TGI (A498 renal) was 2470 nM, the GI50 (A549 NSCLC) was 1520 nM and the TGI (A549 NSCLC) was 6020 nM. The GI50 (ACHN renal) was 1140 nM, the TGI (ACHN renal) was 2750 nM and the GI50 (BT-549 breast) was 1030 nM. It also gave a TGI (BT-549 breast) of 2920 nM, a GI50 (CAKI-1 renal) of 978 nM and a TGI (CAKI-1 renal) of 2300 nM. It also gave a GI50 (CCRF-CEM leukemia) of 1260 nM, a TGI (CCRF-CEM leukemia) of 5870 nM and a GI50 (COLO 205 colon) of 1060 nM. The TGI (COLO 205 colon) was 2350 nM, the GI50 (DU-145 prostate) was 2090 nM and the TGI (DU-145 prostate) was 8170 nM. For the same molecule, the GI50 (EKVX NSCLC) was 2010 nM, the TGI (EKVX NSCLC) was 8150 nM and the GI50 (HCC-2998 colon) was 1050 nM. The TGI (HCC-2998 colon) was 2390 nM, the GI50 (HCT-116 colon) was 614 nM and the TGI (HCT-116 colon) was 1600 nM. For the same molecule, the GI50 (HCT-15 colon) was 731 nM, the TGI (HCT-15 colon) was 1870 nM and the GI50 (HL-60(TB) leukemia) was 1270 nM. The TGI (HL-60(TB) leukemia) was 2860 nM, the GI50 (HOP-62 NSCLC) was 1440 nM and the TGI (HOP-62 NSCLC) was 4760 nM. The GI50 (HOP-92 NSCLC) was 627 nM, the TGI (HOP-92 NSCLC) was 1890 nM and the GI50 (HS 578T breast) was 1090 nM. For the same molecule, the TGI (HS 578T breast) was 3150 nM, the GI50 (HT29 colon) was 665 nM and the TGI (HT29 colon) was 2030 nM. The GI50 (IGROV1 ovarian) was 1290 nM, the TGI (IGROV1 ovarian) was 3100 nM and the GI50 (K-562 leukemia) was 874 nM. For the same molecule, the TGI (K-562 leukemia) was 3800 nM, the GI50 (KM12 colon) was 1800 nM and the TGI (KM12 colon) was 6950 nM. It also gave a GI50 (LOX IMVI melanoma) of 530 nM, a TGI (LOX IMVI melanoma) of 1220 nM and a GI50 (M14 melanoma) of 936 nM. The TGI (M14 melanoma) was 1890 nM, the GI50 (MALME-3M melanoma) was 832 nM and the TGI (MALME-3M melanoma) was 1640 nM. The GI50 (MCF7 breast) was 275 nM, the TGI (MCF7 breast) was 1100 nM and the GI50 (MDA-MB-231 breast) was 973 nM. For the same molecule, the TGI (MDA-MB-231 breast) was 2080 nM, the GI50 (MDA-MB-435) was 903 nM and the TGI (MDA-MB-435) was 1760 nM. For the same molecule, the GI50 (MOLT-4 leukemia) was 1340 nM, the TGI (MOLT-4 leukemia) was 5250 nM and the GI50 (NCI-H226 lung) was 2430 nM. For the same molecule, the TGI (NCI-H226 lung) was 10300 nM, the GI50 (NCI-H23 lung) was 1470 nM and the TGI (NCI-H23 lung) was 5520 nM. It also gave a GI50 (NCI-H460 lung) of 1440 nM, a TGI (NCI-H460 lung) of 4470 nM and a GI50 (NCI-H522 lung) of 1010 nM. The TGI (NCI-H522 lung) was 2240 nM, the GI50 (NCI/ADR-RES ovarian) was 1700 nM and the TGI (NCI/ADR-RES ovarian) was 6500 nM. It also gave a GI50 (OVCAR-3 ovarian) of 1240 nM, a TGI (OVCAR-3 ovarian) of 3620 nM and a GI50 (OVCAR-4 ovarian) of 1060 nM. The TGI (OVCAR-4 ovarian) was 2460 nM, the GI50 (OVCAR-5 ovarian) was 1570 nM and the TGI (OVCAR-5 ovarian) was 5680 nM. It also gave a GI50 (OVCAR-8 ovarian) of 1680 nM, a TGI (OVCAR-8 ovarian) of 6370 nM and a GI50 (PC-3 prostate) of 1180 nM. The TGI (PC-3 prostate) was 4290 nM, the GI50 (RPMI-8226 leukemia) was 1140 nM and the TGI (RPMI-8226 leukemia) was 3240 nM. For the same molecule, the GI50 (RXF 393 renal) was 738 nM, the TGI (RXF 393 renal) was 1500 nM and the GI50 (SF-268 CNS) was 1210 nM. For the same molecule, the TGI (SF-268 CNS) was 3430 nM, the GI50 (SF-295 CNS) was 883 nM and the TGI (SF-295 CNS) was 1750 nM. For the same molecule, the GI50 (SF-539 CNS) was 875 nM, the TGI (SF-539 CNS) was 1650 nM and the GI50 (SK-MEL-2 melanoma) was 1030 nM. The TGI (SK-MEL-2 melanoma) was 2140 nM, the GI50 (SK-MEL-28 melanoma) was 856 nM and the TGI (SK-MEL-28 melanoma) was 1620 nM. It also gave a GI50 (SK-MEL-5 melanoma) of 873 nM, a TGI (SK-MEL-5 melanoma) of 1630 nM and a GI50 (SK-OV-3 ovarian) of 1270 nM. It also gave a TGI (SK-OV-3 ovarian) of 3170 nM, a GI50 (SN12C renal) of 972 nM and a TGI (SN12C renal) of 2400 nM. For the same molecule, the GI50 (SNB-19 CNS) was 1610 nM, the TGI (SNB-19 CNS) was 5390 nM and the GI50 (SNB-75 CNS) was 7590 nM. It also gave a TGI (SNB-75 CNS) of 17500 nM, a GI50 (SR leukemia) of 289 nM and a TGI (SR leukemia) of 50000 nM. For the same molecule, the GI50 (SW-620 colon) was 936 nM, the TGI (SW-620 colon) was 2020 nM and the GI50 (T-47D breast) was 747 nM. It also gave a TGI (T-47D breast) of 2070 nM, a GI50 (TK-10 renal) of 1150 nM and a TGI (TK-10 renal) of 3280 nM. For the same molecule, the GI50 (U251 CNS) was 876 nM, the TGI (U251 CNS) was 2000 nM and the GI50 (UACC-257 melanoma) was 942 nM. It also gave a TGI (UACC-257 melanoma) of 1880 nM, a GI50 (UACC-62 melanoma) of 887 nM and a TGI (UACC-62 melanoma) of 1700 nM. It also gave a GI50 (UO-31 renal) of 789 nM and a TGI (UO-31 renal) of 1500 nM.
